From US10519152B2, “Compounds and their use in treating cancer” (AstraZeneca AB, priority 2017, dated 2019)

The compounds below were run against T1, recombinant human Estrogen Receptor alpha ligand binding domain, residues 307-554 (ER alpha-LBD (GST)) (Homo sapiens, UniProt P03372) (assay: ERα binding assay (LanthaScreen TR-FRET competition)). Details: TR-FRET competition with Fluormone ES2 tracer, 4 hours at room temperature; single experiment or average of two or more.
T1 construct: made in house
T1 sequence (P03372 307-554): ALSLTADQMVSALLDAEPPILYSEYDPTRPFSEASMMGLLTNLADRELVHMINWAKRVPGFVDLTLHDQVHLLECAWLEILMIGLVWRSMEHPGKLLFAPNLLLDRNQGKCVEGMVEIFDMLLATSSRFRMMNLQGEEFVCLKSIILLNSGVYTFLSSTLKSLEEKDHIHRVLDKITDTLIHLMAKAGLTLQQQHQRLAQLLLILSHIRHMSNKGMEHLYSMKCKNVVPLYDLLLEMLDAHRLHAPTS

Going from Cc1ncsc1-c1ccc(CNC(=O)[C@@H]2C[C@@H](O)CN2C(=O)[C@@H](NC(=O)COCCCCCOCCCOc2cc(F)c([C@@H]3c4[nH]c5ccccc5c4C[C@@H](C)N3CC(C)(C)F)c(F)c2)C(C)(C)C)cc1 [Example 136, (2S,4R)-1-((S)-2-(2-((5-(3-(3,5-Difluoro-4-((1R,3R)-2-(2-fluoro-2-methylpropyl)-3-methyl-2,3,4,9-tetrahydro-1H-pyrido[3,4-b]indol-1-yl)phenoxy)propoxy)pentyl)oxy)acetamido)-3,3-dimethylbutanoyl)-4-hydroxy-N-(4-(4-methylthiazol-5-yl)benzyl)pyrrolidine-2-carboxamide] to Cc1ncsc1-c1ccc(CNC(=O)[C@@H]2C[C@@H](O)CN2C(=O)[C@@H](NC(=O)COCCCOCCCCCOc2cc(F)c([C@@H]3c4[nH]c5ccccc5c4C[C@@H](C)N3CC(C)(C)F)c(F)c2)C(C)(C)C)cc1 [Example 138, (2S,4R)-1-((S)-2-(2-(3-((5-(3,5-Difluoro-4-((R,3R)-2-(2-fluoro-2-methylpropyl)-3-methyl-2,3,4,9-tetrahydro-1H-pyrido[3,4-b]indol-1-yl)phenoxy)pentyl)oxy)propoxy)acetamido)-3,3-dimethylbutanoyl)-4-hydroxy-N-(4-(4-methylthiazol-5-yl)benzyl)pyrrolidine-2-carboxamide], the IC50 falls from 1.2 nM to 0.6 nM (2-fold). The second is the more potent here.

Cc1ncsc1-c1ccc(CNC(=O)[C@@H]2C[C@@H](O)CN2C(=O)[C@@H](NC(=O)COCCCCCCCOc2ccc([C@@H]3c4[nH]c5ccccc5c4C[C@@H](C)N3CC(F)F)nc2)C(C)(C)C)cc1 [Example 6, (2S,4R)-1-((S)-2-(2-((7-((6-((1S,3R)-2-(2,2-Difluoroethyl)-3-methyl-2,3,4,9-tetrahydro-1H-pyrido[3,4-b]indol-1-yl)pyridin-3-yl)oxy)heptyl)oxy)acetamido)-3,3-dimethylbutanoyl)-4-hydroxy-N-(4-(4-methylthiazol-5-yl)benzyl)pyrrolidine-2-carboxamide] and Cc1ncsc1-c1ccc(CNC(=O)[C@@H]2C[C@@H](O)CN2C(=O)[C@@H](NC(=O)COCCCCCOc2ccc([C@@H]3c4[nH]c5ccccc5c4C[C@@H](C)N3CC(F)F)nc2)C(C)(C)C)cc1 [Example 17, (2S,4R)-1-((S)-2-(2-((5-((6-((1S,3R)-2-(2,2-Difluoroethyl)-3-methyl-2,3,4,9-tetrahydro-1H-pyrido[3,4-b]indol-1-yl)pyridin-3-yl)oxy)pentyl)oxy)acetamido)-3,3-dimethylbutanoyl)-4-hydroxy-N-(4-(4-methylthiazol-5-yl)benzyl)pyrrolidine-2-carboxamide] are within 1.5-fold of each other in IC50: 4.2 nM for the first, 5.5 nM for the second.

Cc1ncsc1-c1ccc(CNC(=O)[C@@H]2C[C@@H](O)CN2C(=O)[C@@H](NC(=O)CCCCCCCCCOc2cc(F)c([C@@H]3c4[nH]c5ccccc5c4C[C@@H](C)N3CC(C)(C)F)c(F)c2)C(C)(C)C)cc1 [Example 11, (2S,4R)-1-((S)-2-(10-(3,5-Difluoro-4-((1R,3R)-2-(2-fluoro-2-methylpropyl)-3-methyl-2,3,4,9-tetrahydro-1H-pyrido[3,4-b]indol-1-yl)phenoxy)decanamido)-3,3-dimethylbutanoyl)-4-hydroxy-N-(4-(4-methylthiazol-5-yl)benzyl)pyrrolidine-2-carboxamide] and Cc1ncsc1-c1ccc(CNC(=O)[C@@H]2C[C@@H](O)CN2C(=O)[C@@H](NC(=O)CCCCCCCCOc2cc(F)c([C@@H]3c4[nH]c5ccccc5c4C[C@@H](C)N3CC(C)(C)F)c(F)c2)C(C)(C)C)cc1 [Example 15, (2S,4R)-1-((S)-2-(9-(3,5-Difluoro-4-((1R,3R)-2-(2-fluoro-2-methylpropyl)-3-methyl-2,3,4,9-tetrahydro-1H-pyrido[3,4-b]indol-1-yl)phenoxy)nonanamido)-3,3-dimethylbutanoyl)-4-hydroxy-N-(4-(4-methylthiazol-5-yl)benzyl)pyrrolidine-2-carboxamide] are the same in IC50: 1.5 nM for the first, 1.5 nM for the second.

Cc1ncsc1-c1ccc(CNC(=O)[C@@H]2C[C@@H](O)CN2C(=O)[C@@H](NC(=O)COCCc2ccc(COc3cc(F)c([C@@H]4c5[nH]c6ccccc6c5C[C@@H](C)N4CC(C)(C)F)c(F)c3)nc2)C(C)(C)C)cc1 [Example 158, (2S,4R)-1-((S)-2-(2-(2-(6-((3,5-Difluoro-4-((1R,3R)-2-(2-fluoro-2-methylpropyl)-3-methyl-2,3,4,9-tetrahydro-1H-pyrido[3,4-b]indol-1-yl)phenoxy)methyl)pyridin-3-yl)ethoxy)acetamido)-3,3-dimethylbutanoyl)-4-hydroxy-N-(4-(4-methylthiazol-5-yl)benzyl)pyrrolidine-2-carboxamide] and Cc1ncsc1-c1ccc(CNC(=O)[C@@H]2C[C@@H](O)CN2C(=O)[C@@H](NC(=O)COCCCOCCCCOc2cc(F)c([C@@H]3c4[nH]c5ccccc5c4C[C@@H](C)N3CC(C)(C)F)c(F)c2)C(C)(C)C)cc1 [Example 129, (2S,4R)-1-((S)-2-(2-(3-(4-(3,5-Difluoro-4-((1R,3R)-2-(2-fluoro-2-methylpropyl)-3-methyl-2,3,4,9-tetrahydro-1H-pyrido[3,4-b]indol-1-yl)phenoxy)butoxy)propoxy)acetamido)-3,3-dimethylbutanoyl)-4-hydroxy-N-(4-(4-methylthiazol-5-yl)benzyl)pyrrolidine-2-carboxamide] are within 1.5-fold of each other in IC50: 0.8 nM for the first, 1 nM for the second.

Cc1ncsc1-c1ccc(CNC(=O)[C@@H]2C[C@@H](O)CN2C(=O)[C@@H](NC(=O)CNCCCCCCCCOc2cc(F)c([C@@H]3c4[nH]c5ccccc5c4C[C@@H](C)N3CC(C)(C)F)c(F)c2)C(C)(C)C)cc1 [Example 147, (2S,4R)-1-((S)-2-(2-((8-(3,5-Difluoro-4-((1R,3R)-2-(2-fluoro-2-methylpropyl)-3-methyl-2,3,4,9-tetrahydro-1H-pyrido[3,4-b]indol-1-yl)phenoxy)octyl)amino)acetamido)-3,3-dimethylbutanoyl)-4-hydroxy-N-(4-(4-methylthiazol-5-yl)benzyl)pyrrolidine-2-carboxamide] and Cc1ncsc1-c1ccc(CNC(=O)[C@@H]2C[C@@H](O)CN2C(=O)[C@@H](NC(=O)CCOCCCCCCCOc2cc(F)c([C@@H]3c4[nH]c5ccccc5c4C[C@@H](C)N3CC(C)(C)F)c(F)c2)C(C)(C)C)cc1 [Example 115, (2S,4R)-1-((S)-2-(3-((7-(3,5-difluoro-4-((1R,3R)-2-(2-fluoro-2-methylpropyl)-3-methyl-2,3,4,9-tetrahydro-1H-pyrido[3,4-b]indol-1-yl)phenoxy)heptyl)oxy)propanamido)-3,3-dimethylbutanoyl)-4-hydroxy-N-(4-(4-methylthiazol-5-yl)benzyl)pyrrolidine-2-carboxamide] are within 1.5-fold of each other in IC50: 1 nM for the first, 0.7 nM for the second.

Cc1ncsc1-c1ccc(CNC(=O)[C@@H]2C[C@@H](O)CN2C(=O)[C@@H](NC(=O)COCCCCCN(C)CCOc2cc(F)c([C@@H]3c4[nH]c5ccccc5c4C[C@@H](C)N3CC(C)(C)F)c(F)c2)C(C)(C)C)cc1 [Example 49, (2S,4R)-1-((S)-2-(2-((5-((2-(3,5-difluoro-4-((1R,3R)-2-(2-fluoro-2-methylpropyl)-3-methyl-2,3,4,9-tetrahydro-1H-pyrido[3,4-b]indol-1-yl)phenoxy)ethyl)(methyl)amino)pentyl)oxy)acetamido)-3,3-dimethylbutanoyl)-4-hydroxy-N-(4-(4-methylthiazol-5-yl)benzyl)pyrrolidine-2-carboxamide] and Cc1ncsc1-c1ccc(CNC(=O)[C@@H]2C[C@@H](O)CN2C(=O)[C@@H](NC(=O)C(F)(F)OCCOCCCCOc2cc(F)c([C@@H]3c4[nH]c5ccccc5c4C[C@@H](C)N3CC(C)(C)F)c(F)c2)C(C)(C)C)cc1 [Example 121, (2S,4R)-1-((S)-2-(2-(2-(4-(3,5-Difluoro-4-((1R,3R)-2-(2-fluoro-2-methylpropyl)-3-methyl-2,3,4,9-tetrahydro-1H-pyrido[3,4-b]indol-1-yl)phenoxy)butoxy)ethoxy)-2,2-difluoroacetamido)-3,3-dimethylbutanoyl)-4-hydroxy-N-(4-(4-methylthiazol-5-yl)benzyl)pyrrolidine-2-carboxamide] are within 1.5-fold of each other in IC50: 1 nM for the first, 0.7 nM for the second.

First: Cc1ncsc1-c1ccc([C@@H](CN(C)C)NC(=O)[C@@H]2C[C@@H](O)CN2C(=O)[C@@H](NC(=O)COCCOCCOCCOc2cc(F)c([C@@H]3c4[nH]c5ccccc5c4C[C@@H](C)N3CC(C)(C)F)c(F)c2)C(C)(C)C)cc1 [Example 107, (2S,4R)-1-[(2S)-2-[[2-[2-[2-[2-[3,5-Difluoro-4-[(1R,3R)-2-(2-fluoro-2-methyl-propyl)-3-methyl-1,3,4,9-tetrahydropyrido[3,4-b]indol-1-yl]phenoxy]ethoxy]ethoxy]ethoxy]acetyl]amino]-3,3-dimethyl-butanoyl]-N-[(1S)-2-(dimethylamino)-1-[4-(4-methylthiazol-5-yl)phenyl]ethyl]-4-hydroxy-pyrrolidine-2-carboxamide]
Second: Cc1ncsc1-c1ccc(CNC(=O)[C@@H]2C[C@@H](OC(=O)[C@@H]3CCCN3)CN2C(=O)[C@@H](NC(=O)CCCCCCCCCCOc2cc(F)c([C@@H]3c4[nH]c5ccccc5c4C[C@@H](C)N3CC(C)(C)F)c(F)c2)C(C)(C)C)cc1 [Example 33, (3R,5S)-1-((S)-2-(11-(3,5-Difluoro-4-((1R,3R)-2-(2-fluoro-2-methylpropyl)-3-methyl-2,3,4,9-tetrahydro-1H-pyrido[3,4-b]indol-1-yl)phenoxy)undecanamido)-3,3-dimethylbutanoyl)-5-((4-(4-methylthiazol-5-yl)benzyl)carbamoyl)pyrrolidin-3-yl L-prolinate]
The IC50 of the first is 2.2-fold lower: 4 nM for the first, 8.9 nM for the second. The first is the more potent here.
